# Measurements published in patent US20230398133A1, “USE OF B-CELL LYMPHOMA 2 (BCL-2) INHIBITOR AND PHARMACEUTICAL COMPOSITION FOR TREATING CELLULAR SENESCENCE-RELATED SKIN DISEASES” (Xeon Biopharmaceutical Limited, priority 2020, published 2023).
# How the values were obtained:
# [1] = test system: imiquimod-induced psoriasis mouse model; experiment: External application of ABT-737 gel and intraperitoneal injection of ABT-737 injection in imiquimod-induced psoriasis mouse model (Example 6); type: in vivo; conditions: intraperitoneal injection 25 mg/kg/day
# Method: Effects of external application of BCL-2 inhibitor ABT-737 gel (Example 2) and intraperitoneal injection of 2.5 mg/ml BCL-2 inhibitor ABT-737 injection (Example 1) on imiquimod-induced psoriasis mouse model was studied.
# 19 healthy female Balb/c mice at the age of 8 weeks with a body weight of 20±2 g were taken, and depilated by 2×2 cm^2 on the back of the torso. After 24 h of depilation, it was confirmed that there was no abnormal change in depilated areas, and the mice were randomly divided into 5 groups, including: (1) a psoriasis mouse model group (3 mice): psoriasis model was induced by external application of imiquimod; (2) a group external application of ABT-737 gel (Example 2) for treating psoriasis mouse model (hereinafter referred to as ABT-737 gel treatment group, 5 mice): psoriasis model was induced by external application of imiquimod, and each mouse was treated with ABT-737 gel 0.5 g/day for external application; (3) a group of external application of blank gel (Example 4) to treat the psoriasis mouse model (hereinafter referred to as the blank gel control group, 5 mice): the psoriasis model was induced by external application of imiquimod, and each mouse was treated with blank gel the same amount as the ABT-737 treatment group by external application; (4) a group of intraperitoneal injection of BCL-2 inhibitor ABT-737 injection (Example 1; hereinafter referred to as ABT-737 intraperitoneal injection treatment group, 3 mice): psoriasis model was induced by external application of imiquimod, and each mouse was treated by intraperitoneal injection of 25 mg/kg/day of ABT-737 (that is, 200 μl of 2.5 mg/ml ABT-737 injection was given to the above-mentioned mice); (5) a group of blank injection for intraperitoneal injection (Example 3; hereinafter referred to as blank injection for intraperitoneal injection group, 3 mice): psoriasis model was induced by external application of imiquimod, and each mouse was treated by intraperitoneal injection of 200 μl of blank injection. […]
# [2] = test system: imiquimod-induced psoriasis mouse model; experiment: Subcutaneous injection of ABT-737 injection in imiquimod-induced psoriasis mouse model (Example 5); type: in vivo; conditions: subcutaneous injection 25 mg/kg/day
# Method: Effects of subcutaneous injection of 2.5 mg/ml BCL-2 inhibitor (ABT-737 injection) on imiquimod-induced psoriasis mouse model were studied.
# 16 healthy female Balb/c mice at the age of 8 weeks with a body weight of 20±2 g were taken, and depilated by 2×2 cm^2 on the back of the torso. After 24 h of depilation, it was confirmed that there was no abnormal change in depilated areas, and the mice were randomly divided into 4 groups, including: (1) a normal control group (3 mice): no special operations were conducted; (2) a psoriasis mouse model group (3 mice): psoriasis model was induced by external application of imiquimod; (3) a group of subcutaneous injection of ABT-737 injection (Example 1) to treat psoriasis mouse model (hereinafter referred to as ABT-737 subcutaneous injection group, 5 mice): psoriasis model was induced by external application of imiquimod, and subcutaneous injection of 25 mg/kg/day ABT-737 was conducted for treatment (that is, 200 μl of 2.5 mg/ml ABT-737 injection was given to the above-mentioned mice); (4) a group of subcutaneous injection of blank injection (Example 3) to treat psoriasis mouse model (hereinafter referred to as blank injection for subcutaneous injection group, 5 mice): psoriasis model was induced by external application of imiquimod, and subcutaneous injection of blank injection was conducted in an equal volume with the ABT-737 subcutaneous injection group.
# Except for the normal control group, the above-mentioned mice are all prepared with imiquimod-induced psoriasis models: 62.5 mg of 5% imiquimod (Sichuan Med Shine Pharmaceutical Co., Ltd.) was applied evenly with a cotton swab on the depilated areas on the back of the torso of the mouse, by once a day for 7 consecutive days with an interval of 24 h. After the modeling, the skin of the mouse back modeling in the psoriasis model group was taken for tissue paraffin embedding and routine section for HE staining observation. Compared with the normal control group, the model is established based on histological changes such as parakeratosis and spinous layer hypertrophy.
# Immunohistochemical staining of p16, p21 and CD4 was conducted at the same time. The ratio of p16 and p21 positive cells of skin cellular senescence-related molecules between each group was compared under a multispectral microscope, and the infiltration degree of CD4^+ T cells in the skin between each group was compared (FIG. 3). • (3) In addition, the skin specimens of the back modeling sites of the torso of a total of 10 mice in the ABT-737 subcutaneous injection group and the blank injection for subcutaneous injection group were taken, added to an RNA protection solution, cut and ground to prepare a single cell suspension. […]
# [3] = vs blank injection for subcutaneous injection group, FIG. 3
compound,measurement,setting,value
CN(C)CC[C@H](CSc1ccccc1)Nc1ccc(S(=O)(=O)NC(=O)c2ccc(N3CCN(Cc4ccccc4-c4ccc(Cl)cc4)CC3)cc2)cc1[N+](=O)[O-] [ABT-737],improvement of the skin lesions of the mouse model (skin appearance),[1]; FIG. 6,"better than the psoriasis model group, the blank gel control group and the blank injection for intraperitoneal injection group, but is slightly inferior to the ABT-737 gel treatment group"
same,improvement of the skin lesions of the mouse model (HE pathological sections),[1]; FIG. 7,"better than the psoriasis model group, the blank gel control group and the blank injection for intraperitoneal injection group, but is slightly inferior to the ABT-737 gel treatment group"
same,"reduction of p16, p21, CD4 and BCL2 positive cells (immunohistochemistry)",[1]; FIG. 8,"better than the blank gel control group and the blank injection for intraperitoneal injection group, but is slightly inferior to the ABT-737 gel treatment group"
same,dermal inflammatory cells (HE staining),[2]; FIG. 2,significantly reduced
same,downward extension of epidermal protrusions on the back skin lesions (HE staining),[2]; FIG. 2,significantly reduced
same,spinous cell layer (HE staining),[2]; FIG. 2,thinned
same,systemic damage,[2]; conclusion from spleen and DLN T cell subsets,without any systemic damage
same,"appearance of skin at the modeling site: skin swelling, skin thickening and scales","[2]; vs blank injection for subcutaneous injection group and psoriasis model group, FIG. 1",significant improvement
same,proportion of CD4+ cells infiltrated by dermal inflammation (immunohistochemistry),[2]; [3],significantly reduced
same,proportion of senescent cells staining positive in p16 and p21 in paraffin sections of skin lesions (immunohistochemistry),[2]; [3],significantly reduced
same,"mRNA expression levels of genes corresponding to P16, P21, BCL-2, INF-7 and IL17A in skin (real-time quantitative PCR)","[2]; vs blank injection for subcutaneous injection group, FIG. 4",decrease significantly
